Assay results reported in patent US11260050B2, “Combination of cotinine plus antioxidant for treatment-resistant depression and correction of astrocytes functional deficit induced by depression and other neuropathological” (UNIVERSIDAD SAN SEBASTIAN, priority 2017, dated 2022).

Key:
[1] = tested on: mice; settings: absence of stress, cotinine treatment for up to eight months; cited from earlier work
[2] = tested on: restrained mice; assay: Forced swim test, oral co-treatment during restraint stress (Example 3); type: in vivo, C57BL/6J mice; settings: oral cotinine 5 mg/kg, KO 143 mg/kg or both, vs vehicle-treated restrained mice
Experimental: Mice after acclimatization and one week of handling were randomly divided into five groups (n=8/condition) and orally treated as follow: 1) control non-restrained mice treated with vehicle (PBS, pH 7.4); 2) restrained mice treated with vehicle; 3), restrained mice treated with a cotinine solution (5 mg/kg in PBS, pH 7.4) via gavage; 4) restrained mice treated with KO (143 mg/kg); 5) restrained mice treated with cotinine plus KO solution. Mice were started with treatments, the first day of restraint and continuously until euthanasia. Treatments were administered at the same time of the day, 30 min before restraint. After 21 days into treatments, mice were behaviorally tested (FIG. 17).
Restraint stress (RS) was used as a model of chronic stress-induced depressive-like behavior and cognitive impairment. We used this task because is a reliable method that mimics the effects of chronic stress without causing physical pain or unnecessary discomfort to the mice. Mice were gently introduced into a 50-ml conical transparent plastic tubes (Corning Inc.). The tubes contain non-protruding perforations in both ends and in the walls to permit ventilation and only permitted slight movements. […]
The forced swim (FS) is a broadly used task to assess depressive-like behavior in rodents. […] Immobility time was recorded and quantified by two investigators blind to the treatment groups.

[3] = tested on: restrained mice; assay: Novel object recognition after chronic restraint stress (Example 2); type: in vivo, C57BL/6 male mice; settings: stressed mice, IN cotinine vs vehicle
Experimental: Mice between 2-3 months of age after one week of acclimatization were randomly divided into two groups. Stressed mice were subjected to restraint stress. Control (non-restrained) mice were allowed to move freely during this period. After the stress exposure period, mice were divided into three experimental groups: 1) Non-restrained mice treated with vehicle (PBS, pH 7.4) serving as unstressed controls (n=8); 2) Restrained mice (RS) treated with vehicle (n=8); 3), RS mice treated with 24 μl of a cotinine solution (10 mg/ml in PBS, pH 7.4) via intranasal route of administration (n=6). Treatments were administered daily until euthanasia. After two weeks of treatments mice were behaviorally tested and euthanized (FIG. 10)
Intranasal delivery was performed as previously described (Hanson and Frey, 2007). Mice at 2-3 months of age were hand-restrained, positioned in a supine position, and administered two 12 μl drops of cotinine solution (10 mg/ml in PBS), or PBS alone, into both nares. Mice were given an extra 12 μl treatment drop if the mouse expelled out the solution. Mice were kept in the supine posture for 5 seconds after delivery to facilitate the delivery. […]
The NOR test starts with a habituation step that consists in putting each mouse to freely explore an open and empty testing arena (40 cm×40 cm×35 cm) for 10 min. […] The time exploring the objects was recorded during 5 min in both steps. […]

[4] = tested on: conditioned mice; assay: Fear retention and extinction tests after fear conditioning (Example 4); type: in vivo, Mice C57BL/6
Experimental: Three-month-old mice (n=5-6/condition) were weighed and assigned to treatment groups. Mice were treated with vehicle or drugs, starting two h after fear conditioning and daily after behavioral testing until euthanasia. Mice received daily treatments with 1. PBS (phosphate buffer saline, pH 7.4) via intranasal; 2. Cotinine (10 mg/ml) dissolved in PBS via intranasal (IN Cot, 24 μl); 3. Krill oil dissolved in PBS, via intranasal (48 mg/ml, 24 μl); 4. Cotinine (10 mg/ml) plus krill oil dissolved in PBS, via intranasal (48 mg/ml, 24 μl); 5.
For intranasal delivery, mice were hand-restrained, placed in a supine position, and given two 12 μl drops of cotinine solutions, or PBS, into both nares consecutively. Mice were given an extra 12 μl treatment drop if the subject forcibly ejected or sneezed out the solution. Mice were held supine for 5-10 seconds after delivery to ensure that all fluid was inhaled.
Contextual fear conditioning was performed as described. The conditioning chamber used (33 cm×20 cm×22 cm) is surrounded by a sound-attenuating box with a camera connected to freeze frame software (MED Associates Inc.) and equipped to provide a background white noise (72 dB). The conditioning chamber contains in one side a speaker and in the opposite side has a 24V light, and a 36-bar insulated shock grid floor. To perform this test, each mouse was placed in the conditioning chamber for 2 min before the onset of a discrete tone (a sound that will last 30 seconds (sec) at 2,800 Hz and 85 dB). In the last two seconds of this tone, mice received a foot shock of 1 mA, kept in the conditioning chamber for 2 min and returned to their home cages. Between trials, the chamber was sanitized with 70% ethanol and dried. Freezing behavior was defined as the absence of all movement except the one needed for breathing was assessed using the FreezeView Software (MED Associates Inc.).
Fear retention and extinction experiments were performed as described, using the same cohorts of mice and reproduced in two separate experiments. To assess fear retention and mice underwent re-exposure to the conditioning chamber in the absence of an unconditioned stimulus (shock or auditory cues) for 3 minutes (min) in daily extinction trials. Freezing behavior was measured using the ANY-Maze® software (Stoelting CO, USA). The extinction trials were continued until the decrease in freezing behavior reached a stable level.

CN1C(=O)CC[C@H]1c1cccnc1 [Cotinine, (5S)-1-methyl-5-(3-pyridyl) pyrrolidin-2-one]
sensory motor abilities or anxiety [1]: did not induce significant differences in sensory motor abilities or anxiety
immobility in the forced swim test [2]: no significant differences
exploration index for the new object (NOR) [3]: increase in the exploration index when compared to vehicle-treated stressed mice but the difference did not reach statistical significance
number of entries to the novel object area (NOR) ([3]; p<0.05): significantly higher number of entries to the novel object area
freezing behavior during daily extinction trials (speed of fear extinction) ([4]; 5 days of extinction, daily treatment): faster extinction of fear
day on which maximal decrease in freezing was reached ([4]; same time as mice treated with PBS): 4 days
fear reaction (freezing) in the retention test ([4]; treatment started 2 h after FC, IN cotinine 10 mg/ml, IN KO 48 mg/ml, oral sertraline 3 mg/kg): significant decrease in the fear reaction in the retention test
